Patent US11098059B2, “PRMT5 inhibitors” (Merck Sharp & Dohme Corp., priority 2017, dated 2021)
Where two headings read alike, the source gives them in different places.

Tests used:
PRMT5 = PRMT5 (Homo sapiens (Human), UniProt O14744); assay: PRMT5 Cell Target Engagement (TE) Assay; type: cell-based; details: treated 3 days, nuclear SDMA by high content imaging, top concentration 10000 nM
Excerpt: PRMT5 Cell Target Engagement (TE) Assay
The PRMT5 TE assay is a biomarker assay for identifying compounds that inhibit symmetric dimethylation of arginine (SDMA) of PRMT5 substrates. This assay detects symmetrically dimethylated nuclear proteins using high content imaging technology. Detection of the expression of symmetrically dimethylated nucleo proteins is through a mixture of primary rabbit monoclonal antibodies to SDMA (CST 13222), which in turn recognized by an Alexafluor 488 dye-conjugated anti-rabbit IgG secondary antibody. The IN Cell Analyzer 2200 measures nuclear Alexafluor 488 fluorescent dye intensity that is directly related to the level of expression of symmetrically dimethylated nuclear proteins at the single cell level. Nuclear AF488 dye intensities are compared to the mean value for DMSO treated cells […] to report percent of inhibition for each compound-treated well.
Each well of a BD falcon collagen coated black/clear bottom 384-well plate was seeded with 4000 MCF-7 cells and allowed to attach for 5 hours. Media from cell plate was removed at 0.5 mm above the bottom of the plate and replaced with 30 μL of fresh media containing 1.2× compounds in 0.1% DMSO. Cells were treated for 3 days in 37° C. CO2 incubator. On day 3, cells were fixed with Cytofix, permeablized with 0.4% Triton-X-100/Cytofix, and washed with D-PBS without Ca/Mg. Cells were blocked with Licor Odessey blocking reagent for one hour at room temperature, followed by incubation with anti-SDMA (1:1000) antibody at 4° C. overnight. 1 antibody was removed, followed by three washings with DPBS without Ca/Mg and 0.05% Tween20. Hoechst (5 μg/ml), Cell Mask deep stain (1:2000) and Alexa488-conjugated goat anti-rabbit IgG (2 μg/mL) was added for 1 hour at room temperature. A final washing step (three washes) was performed before sealing plate for imaging on In Cell Analyzer 2200. Images from analyzer were uploaded to Columbus (at WP) for image analysis. IC50 values were determined by 4 parameters robust fit of percent fluorescence units vs. (Log10) compound concentrations.

[1] = target: Full-length (FL)-PRMT5-MEP50 enzyme complex (Homo sapiens (Human), UniProt O14744); assay: PRMT5-MEP50 Enzyme Methylation Assay; type: biochemical; for Enzyme Methylation Assay IC50 1: top concentration 100000 nM
Chain of Full-length (FL)-PRMT5-MEP50 enzyme complex (O14744 whole entry): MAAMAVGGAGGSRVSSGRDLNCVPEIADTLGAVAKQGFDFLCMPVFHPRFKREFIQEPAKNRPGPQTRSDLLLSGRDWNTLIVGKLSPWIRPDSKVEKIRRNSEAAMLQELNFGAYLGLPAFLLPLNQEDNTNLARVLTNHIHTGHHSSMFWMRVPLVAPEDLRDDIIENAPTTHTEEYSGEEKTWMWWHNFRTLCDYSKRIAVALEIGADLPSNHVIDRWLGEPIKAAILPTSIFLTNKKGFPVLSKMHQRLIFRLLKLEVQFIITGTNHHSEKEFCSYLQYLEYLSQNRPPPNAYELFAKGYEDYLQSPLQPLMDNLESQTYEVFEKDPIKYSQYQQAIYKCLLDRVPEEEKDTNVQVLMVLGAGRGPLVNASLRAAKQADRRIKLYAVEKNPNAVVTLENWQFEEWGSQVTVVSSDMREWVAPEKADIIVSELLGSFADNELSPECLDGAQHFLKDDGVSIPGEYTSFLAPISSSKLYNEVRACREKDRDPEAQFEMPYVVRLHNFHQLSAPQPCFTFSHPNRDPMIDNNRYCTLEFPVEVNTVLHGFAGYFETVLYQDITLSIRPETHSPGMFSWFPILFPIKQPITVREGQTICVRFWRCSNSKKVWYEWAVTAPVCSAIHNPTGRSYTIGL
Chain of Full-length (FL)-PRMT5-MEP50 enzyme complex (Q9BQA1 whole entry partner): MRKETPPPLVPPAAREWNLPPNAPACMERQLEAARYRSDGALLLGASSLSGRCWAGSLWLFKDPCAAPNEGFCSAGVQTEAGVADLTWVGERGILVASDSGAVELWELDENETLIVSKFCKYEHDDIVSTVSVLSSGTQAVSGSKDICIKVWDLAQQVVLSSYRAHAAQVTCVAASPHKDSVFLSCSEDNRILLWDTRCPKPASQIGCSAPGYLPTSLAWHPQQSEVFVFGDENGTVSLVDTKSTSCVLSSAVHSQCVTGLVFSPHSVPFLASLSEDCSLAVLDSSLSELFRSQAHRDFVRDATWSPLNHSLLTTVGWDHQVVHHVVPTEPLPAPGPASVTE
Experimental: PRMT5-MEP50 Enzyme Methylation Assay
PRMT5/MEP50 biochemical assay is a direct measurement of the methylation activity of the enzyme complex on a short peptide substrate derived from the N-terminus of H4 histone. The methylation experiment is performed with recombinant protein. The assessment of inhibitory effect (IC50) of small molecules is measured by the effectiveness of the compounds to inhibit this reaction.
To each well of a white ProxiPlus 384 well-plate, 100 nL of compound (1% DMSO in final assay volume of 10 μL) was dispensed, followed by the addition of 8 μL of 1× assay buffer (50 mM Bicine pH 8.0, 1 mM DTT, 0.004% Tween20, 0.01% BSA) containing 0.5 nM of Full-length (FL)-PRMT5-MEP50 enzyme complex (recombinant proteins from baculovirus-transfected Sf21 cells: FL-PRMT5; MW=[…] and FL-MEP50; MW=38614). Plates were sealed and placed in a 37° C. humidified chamber for 30 minutes pre-incubation with compounds. Subsequently, each reaction was initiated by the addition of 2 μL 1× assay buffer containing 75 nM biotinylated H4R3(Me1) peptide, and 15 μM S-(5′-Adenosyl)-L-Methionine Chloride (SAM). The final reaction in each well of 10 μL consists of 0.5 nM PRMT5-MEP50, 75 nM biotinylated-peptide, and 15 μM SAM. Methylation reactions were allowed to proceed for 150 minutes in a sealed plate at 37° C. Reactions were immediately quenched by the addition of 1 μL of 10% formic acid. Plates were then frozen and shipped to SAMDI™ Tech Inc. to determine the percent conversion from […]. IC50 values were determined by 7 parameters biphasic fit model plotting the percent product conversion vs. (Log10) compound concentrations.

[2] = MCF-7 cells, read-out: TE Assay EC50
[3] = read-out: Enzyme Methylation Assay IC50_1
[4] = read-out: Enzyme Methylation Assay IC50_2

Chain of PRMT5 (O14744 whole entry): as the sequence (O14744 whole entry) above
Chain of PRMT5 (Q9BQA1 whole entry partner): as the sequence (Q9BQA1 whole entry partner) above

SMILES | EC50 (PRMT5; [2]) | IC50 [1, 3] | IC50 [1, 4] | EC50 (PRMT5; TE Assay EC50, MCF-7 cells)
CO[C@H]1C[C@H]2CC[C@@H](C1)N2C(=O)c1ccc2c(c1)C(C)(C)CN(C[C@H](O)[C@@H]1Cc3ccccc3CN1)C2=O [Example 24, 2-((S)-2-hydroxy-2-((S)-1,2,3,4-tetrahydroisoquinolin-3-yl)ethyl)-6-((1R,3S,5S)-3-methoxy-8-azabicyclo[3.2.1]octane-8-carbonyl)-4,4-dimethyl-3,4-dihydroisoquinolin-1(2H)-one] | 2640 nM | 11.3 nM | 7500 nM | –
CO[C@@H]1C[C@H]2CC[C@@H](C1)N2C(=O)c1ccc2c(c1)C(C)(C)CN(C[C@@H](O)[C@@H]1Cc3ccccc3CN1)C2=O [Example 25, 2-((R)-2-hydroxy-2-((S)-1,2,3,4-tetrahydroisoquinolin-3-yl)ethyl)-6-((1R,3S,5S)-3-methoxy-8-azabicyclo[3.2.1]octane-8-carbonyl)-4,4-dimethyl-3,4-dihydroisoquinolin-1(2H)-one] | – | 0.44 nM | 50.1 nM | 3.81 nM
CO[C@@H]1C[C@H]2CC[C@@H](C1)N2C(=O)c1ccc2c(c1)C(C)(C)CN(C[C@H](O)[C@@H]1Cc3ccccc3CN1)C2=O [Example 26, 2-((S)-2-hydroxy-2-((S)-1,2,3,4-tetrahydroisoquinolin-3-yl)ethyl)-6-((1R,3R,5S)-3-methoxy-8-azabicyclo[3.2.1]octane-8-carbonyl)-4,4-dimethyl-3,4-dihydroisoquinolin-1(2H)-one] | 4630 nM | 24.3 nM | 14600 nM | –
CC1(C)CN(C[C@@H](O)[C@@H]2Cc3ccccc3CN2)C(=O)c2ccc(C(=O)N3C4COC5C4OCC53)cc21 [Example 27, 6-(hexahydro-3,6-epiminofuro[3,2-b]furan-7-carbonyl)-2-((R)-2-hydroxy-2-((S)-1,2,3,4-tetrahydroisoquinolin-3-yl)ethyl)-4,4-dimethyl-3,4-dihydroisoquinolin-1(2H)-one] | 18.6 nM | 0.35 nM | 115 nM | –
CC1(C)CN(C[C@H](O)[C@@H]2Cc3ccccc3CN2)C(=O)c2ccc(C(=O)N3C4COC5C4OCC53)cc21 [Example 28, 6-(hexahydro-3,6-epiminofuro[3,2-b]furan-7-carbonyl)-2-((S)-2-hydroxy-2-((S)-1,2,3,4-tetrahydroisoquinolin-3-yl)ethyl)-4,4-dimethyl-3,4-dihydroisoquinolin-1(2H)-one] | ≥ 10000 nM | 34.3 nM | 34300 nM | –
CC1(C)CN(C[C@@H](O)[C@@H]2Cc3ccccc3CN2)C(=O)c2ccc(N3C(=O)C4CCC3CC4)cc21 [Example 29, 2-{(2R)-2-hydroxy-2-[(3S)-1,2,3,4-tetrahydroisoquinolin-3-yl]ethyl}-4,4-dimethyl-6-(3-oxo-2-azabicyclo[2.2.2]octan-2-yl)-3,4-dihydroisoquinolin-1(2H)-one] | 74.4 nM | 0.84 nM | 359 nM | –
O=C1c2ccc(C(=O)N3C4CCC3COC4)cc2CCN1CC(O)[C@@H]1Cc2ccccc2CN1 (stereo partly drawn) [Example 30, 2-{2-hydroxy-2-[(3S)-1,2,3,4-tetrahydroisoquinolin-3-yl]ethyl}-6-(3-oxa-8-azabicyclo[3.2.1]oct-8-ylcarbonyl)-3,4-dihydroisoquinolin-1(2H)-one] | 869 nM | 16.6 nM | 6280 nM | –
